# Test results as given in patent US7101878B1 (Agouron Pharmaceuticals, Inc., priority 1998, dated 2006).
# Assays:
# [1] = target: RXRα Retinoid (Homo sapiens, UniProt P19793); assay: biochemical
# [2] = target: CCKA (Homo sapiens, UniProt P32238); assay: biochemical
# [3] = target: TRH (Homo sapiens, UniProt P34981); assay: biochemical
# [4] = target: H2 Histamine (Homo sapiens, UniProt P25021); assay: Selectivity: H2 Histamine
# [5] = target: CYP3A4 Cytochrome P450 (Homo sapiens, UniProt P08684)
# [6] = target: Oxytocin (Homo sapiens, UniProt P30559); assay: biochemical
# [7] = target: ET-A (Homo sapiens, UniProt P25101); assay: biochemical
# [8] = target: AchE (Homo sapiens, UniProt P22303); assay: Selectivity: AchE
# [9] = target: LTB4 (Homo sapiens, UniProt Q15722); assay: biochemical
# [10] = target: MAO-B (Homo sapiens, UniProt P27338); assay: Selectivity: MAO-B
# [11] = target: PAF (Homo sapiens, UniProt P25105); assay: biochemical
# [12] = target: MAO-A (Homo sapiens, UniProt P21397); assay: Selectivity: MAO-A
# [13] = tested on: testosterone levels in intact male rats; assay: Intact male rat, testosterone suppression; type: in vivo
# Description: Testosterone is a hormone regulated by the hypothalamic-pituitary-gonadal axis. GnRH is secreted in pulses from the hypothalamus and stimulates the anterior pituitary gland to release gonadotropic hormones LH and FSH. Testosterone is produced when the testes are stimulated by LH. The quantity of testosterone secreted increases approximately in direct proportion to the amount of LH available (Guyton, 1986).
# Male Sprague-Dawley (250-275 g) rats were single-housed and allowed to acclimate for 1 week prior to study. On study day animals were dosed with vehicle or test compound by various routes of administration, including ip, sc, or po. Blood samples were obtained via cardiac puncture under halothane anesthesia from individual animals at predetermined time points post treatment. Blood samples were drawn into heparin containing tubes. Blood was centrifuged immediately, plasma collected and stored in −20° freezer until assayed. Plasma samples were analyzed using DSL-4000 ACTIVE Testosterone coated-tube raduioimmunoassay kit from Diagnostic Systems Laboratories, Inc.
# Male Sprague-Dawley (250-275 g) rats were single-housed and allowed to acclimate for 1 week prior to study. We developed a technique to allow for repeated sampling from the jugular vein by using microrenathane (MRE) catheters implanted 7 days prior to study. Details of the surgical procedure have been described previously {Harms and Ojeda, 1974}. On study day, animals were allowed to acclimate to the procedure room while residing in their home cage. Basal blood samples were drawn from all animals. Immediately following basal sampling, vehicle or test compounds were administered by various routes. The routes of administration employed were intravenous (iv), intramuscular (im), and oral (po). Blood samples were drawn into heparin containing tubes at multiple time points post treatment. Blood was centrifuged immediately, plasma collected and stored in −20° freezer until assayed. Plasma samples were analyzed using DSL-4000 ACTIVE Testosterone coated-tube raduioimmunoassay kit from Diagnostic Systems Laboratories, Inc.
# Male Sprague-Dawley (250-275 g) rats were double-housed and allowed to acclimate for 1 week prior to study. Daily vehicle treatments were administered either, im, sc, or po between 8:00 and 9:00 am for seven days. On day 8 between 8:00 and 9:00 am, blood samples were drawn via cardiac puncture under halothane anesthesia. The procedure was complete in 45-60 seconds. Over the next 7 days one groups of animals continued to receive vehicle treatments while another group of animals received no treatment. Samples were collected as described above following the 7th day of this treatment regimen. Testosterone levels were not different between vehicle treated animals and untreated animals.
# Daily im dosing of Compound 134 (100 mg/kg) or vehicle was performed between 8:00 and 9:00 am for seven days. Samples were collected as described above following the 7th day of treatment.
# All blood samples were collected in heparin containing tubes. Blood was centrifuged immediately, plasma collected and stored in −20° freezer until assayed the next day. Plasma samples were analyzed using DSL-4000 ACTIVE Testosterone coated-tube raduioimmunoassay kit from Diagnostic Systems Laboratories, Inc.
# Sequence of MAO-B (P27338 whole entry, species assumed): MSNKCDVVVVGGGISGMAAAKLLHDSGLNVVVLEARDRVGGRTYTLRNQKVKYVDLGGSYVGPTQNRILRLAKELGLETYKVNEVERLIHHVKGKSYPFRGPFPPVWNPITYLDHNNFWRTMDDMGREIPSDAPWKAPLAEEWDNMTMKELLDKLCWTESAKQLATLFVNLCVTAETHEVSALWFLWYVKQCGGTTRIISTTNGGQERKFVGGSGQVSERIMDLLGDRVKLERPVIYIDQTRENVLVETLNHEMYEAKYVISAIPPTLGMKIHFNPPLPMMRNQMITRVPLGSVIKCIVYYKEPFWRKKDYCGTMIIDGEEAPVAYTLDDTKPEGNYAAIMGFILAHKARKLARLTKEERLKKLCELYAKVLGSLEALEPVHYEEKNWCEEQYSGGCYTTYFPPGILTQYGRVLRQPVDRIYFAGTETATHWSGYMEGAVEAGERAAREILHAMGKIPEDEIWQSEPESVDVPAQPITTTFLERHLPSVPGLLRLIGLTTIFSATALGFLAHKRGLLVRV
# Sequence of Oxytocin (P30559 whole entry): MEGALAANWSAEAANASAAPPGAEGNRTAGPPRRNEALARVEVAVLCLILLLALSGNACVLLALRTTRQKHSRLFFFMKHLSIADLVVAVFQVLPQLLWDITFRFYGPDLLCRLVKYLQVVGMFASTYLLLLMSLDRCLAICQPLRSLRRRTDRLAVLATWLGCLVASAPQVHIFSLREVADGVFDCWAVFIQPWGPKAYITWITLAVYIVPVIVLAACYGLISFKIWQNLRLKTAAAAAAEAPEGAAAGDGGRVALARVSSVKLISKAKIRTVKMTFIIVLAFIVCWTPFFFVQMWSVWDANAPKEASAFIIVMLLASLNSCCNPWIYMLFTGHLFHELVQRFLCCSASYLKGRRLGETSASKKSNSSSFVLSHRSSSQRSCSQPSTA
# Sequence of AchE (P22303 32-614): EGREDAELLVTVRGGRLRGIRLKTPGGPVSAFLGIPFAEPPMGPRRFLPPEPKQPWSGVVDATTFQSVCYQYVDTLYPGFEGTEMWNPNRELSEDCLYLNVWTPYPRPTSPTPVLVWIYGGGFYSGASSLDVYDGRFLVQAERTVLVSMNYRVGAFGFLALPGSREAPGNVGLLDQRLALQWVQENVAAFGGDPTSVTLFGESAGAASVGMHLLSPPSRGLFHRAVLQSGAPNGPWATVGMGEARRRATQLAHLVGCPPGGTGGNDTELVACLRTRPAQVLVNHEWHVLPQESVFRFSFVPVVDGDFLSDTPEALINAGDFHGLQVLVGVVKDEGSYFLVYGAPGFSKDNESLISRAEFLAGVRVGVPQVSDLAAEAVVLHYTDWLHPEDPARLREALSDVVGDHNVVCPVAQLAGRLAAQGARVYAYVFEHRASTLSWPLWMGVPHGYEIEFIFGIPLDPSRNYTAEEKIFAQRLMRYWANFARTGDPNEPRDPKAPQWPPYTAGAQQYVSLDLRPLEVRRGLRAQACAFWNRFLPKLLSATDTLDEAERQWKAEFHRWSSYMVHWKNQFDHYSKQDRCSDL
# Sequence of CCKA (P32238 whole entry): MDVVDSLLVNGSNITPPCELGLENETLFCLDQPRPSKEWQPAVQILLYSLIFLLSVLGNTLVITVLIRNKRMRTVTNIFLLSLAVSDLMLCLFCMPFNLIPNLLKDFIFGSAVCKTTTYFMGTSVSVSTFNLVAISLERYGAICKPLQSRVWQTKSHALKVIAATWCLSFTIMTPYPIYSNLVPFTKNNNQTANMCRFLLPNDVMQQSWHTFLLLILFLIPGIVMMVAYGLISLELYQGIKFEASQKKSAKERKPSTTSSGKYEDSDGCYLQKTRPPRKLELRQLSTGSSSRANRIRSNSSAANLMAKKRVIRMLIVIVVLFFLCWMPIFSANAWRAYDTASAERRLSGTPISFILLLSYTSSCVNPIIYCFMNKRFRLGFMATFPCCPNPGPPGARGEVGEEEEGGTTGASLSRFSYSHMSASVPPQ
# Sequence of MAO-A (P21397 whole entry, species assumed): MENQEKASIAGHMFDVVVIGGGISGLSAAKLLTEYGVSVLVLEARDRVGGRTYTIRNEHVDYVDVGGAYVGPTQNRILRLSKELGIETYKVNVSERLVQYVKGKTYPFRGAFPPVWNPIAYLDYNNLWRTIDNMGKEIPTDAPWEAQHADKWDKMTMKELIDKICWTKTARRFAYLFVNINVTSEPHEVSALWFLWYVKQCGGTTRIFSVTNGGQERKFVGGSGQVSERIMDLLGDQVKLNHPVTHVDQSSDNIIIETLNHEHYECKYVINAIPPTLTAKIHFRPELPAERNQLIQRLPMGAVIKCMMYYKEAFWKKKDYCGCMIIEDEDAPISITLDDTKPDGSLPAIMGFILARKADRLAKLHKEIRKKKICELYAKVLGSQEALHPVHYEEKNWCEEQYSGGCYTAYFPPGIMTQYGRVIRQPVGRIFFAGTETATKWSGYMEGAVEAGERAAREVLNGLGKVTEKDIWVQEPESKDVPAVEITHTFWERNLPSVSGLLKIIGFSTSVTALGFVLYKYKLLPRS
# Sequence of PAF (P25105 whole entry): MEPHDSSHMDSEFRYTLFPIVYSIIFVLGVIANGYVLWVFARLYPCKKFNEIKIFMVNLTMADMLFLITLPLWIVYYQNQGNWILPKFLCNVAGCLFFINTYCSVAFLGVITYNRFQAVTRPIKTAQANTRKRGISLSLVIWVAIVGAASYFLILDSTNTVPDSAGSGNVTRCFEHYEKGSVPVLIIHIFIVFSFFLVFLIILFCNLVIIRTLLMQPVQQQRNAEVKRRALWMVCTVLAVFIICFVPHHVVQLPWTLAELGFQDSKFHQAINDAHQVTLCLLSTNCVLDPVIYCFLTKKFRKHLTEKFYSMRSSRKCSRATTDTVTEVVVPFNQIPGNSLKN
# Sequence of LTB4 (Q15722 whole entry): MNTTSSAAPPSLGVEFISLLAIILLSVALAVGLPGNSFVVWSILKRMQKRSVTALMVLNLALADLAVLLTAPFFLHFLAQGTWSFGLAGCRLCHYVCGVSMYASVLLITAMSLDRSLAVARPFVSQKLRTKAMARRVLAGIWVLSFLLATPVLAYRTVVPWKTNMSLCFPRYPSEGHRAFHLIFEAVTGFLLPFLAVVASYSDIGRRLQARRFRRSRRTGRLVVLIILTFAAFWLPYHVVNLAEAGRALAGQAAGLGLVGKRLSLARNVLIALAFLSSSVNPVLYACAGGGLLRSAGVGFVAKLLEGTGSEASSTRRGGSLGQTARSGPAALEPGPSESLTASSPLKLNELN
# Sequence of H2 Histamine (P25021 whole entry): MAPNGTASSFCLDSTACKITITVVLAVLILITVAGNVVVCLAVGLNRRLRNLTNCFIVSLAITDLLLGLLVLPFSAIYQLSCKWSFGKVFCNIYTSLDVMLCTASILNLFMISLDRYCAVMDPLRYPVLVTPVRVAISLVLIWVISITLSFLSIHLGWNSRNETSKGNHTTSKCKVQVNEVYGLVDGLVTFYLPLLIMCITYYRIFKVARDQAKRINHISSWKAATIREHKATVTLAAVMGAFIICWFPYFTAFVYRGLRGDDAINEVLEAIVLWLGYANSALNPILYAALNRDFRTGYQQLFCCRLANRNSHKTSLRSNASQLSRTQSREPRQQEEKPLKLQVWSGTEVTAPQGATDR
# Sequence of ET-A (P25101 21-427): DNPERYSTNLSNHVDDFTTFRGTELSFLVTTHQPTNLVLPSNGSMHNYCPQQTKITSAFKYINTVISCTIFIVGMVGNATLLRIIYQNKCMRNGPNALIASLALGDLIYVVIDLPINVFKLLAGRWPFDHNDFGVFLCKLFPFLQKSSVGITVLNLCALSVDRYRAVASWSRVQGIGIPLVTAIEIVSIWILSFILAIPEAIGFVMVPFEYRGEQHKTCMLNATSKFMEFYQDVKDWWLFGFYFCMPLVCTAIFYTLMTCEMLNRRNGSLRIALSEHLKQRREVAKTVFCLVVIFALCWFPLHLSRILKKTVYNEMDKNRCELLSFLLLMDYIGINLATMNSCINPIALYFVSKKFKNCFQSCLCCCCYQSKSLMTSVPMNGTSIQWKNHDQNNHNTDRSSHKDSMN
# Sequence of CYP3A4 Cytochrome P450 (P08684 whole entry): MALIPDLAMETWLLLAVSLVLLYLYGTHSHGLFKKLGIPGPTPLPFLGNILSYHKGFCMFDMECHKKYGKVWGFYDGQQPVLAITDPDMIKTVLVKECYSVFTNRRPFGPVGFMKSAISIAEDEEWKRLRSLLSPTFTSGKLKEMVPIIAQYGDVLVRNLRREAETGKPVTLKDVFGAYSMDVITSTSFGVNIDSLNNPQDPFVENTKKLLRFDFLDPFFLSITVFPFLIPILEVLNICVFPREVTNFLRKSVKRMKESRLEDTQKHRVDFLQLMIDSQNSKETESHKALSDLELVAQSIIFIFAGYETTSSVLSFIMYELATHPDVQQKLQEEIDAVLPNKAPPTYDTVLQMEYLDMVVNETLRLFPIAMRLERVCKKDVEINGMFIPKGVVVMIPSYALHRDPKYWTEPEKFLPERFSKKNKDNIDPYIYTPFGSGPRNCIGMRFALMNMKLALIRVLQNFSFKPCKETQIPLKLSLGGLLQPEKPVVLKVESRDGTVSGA
# Sequence of TRH (P34981 whole entry): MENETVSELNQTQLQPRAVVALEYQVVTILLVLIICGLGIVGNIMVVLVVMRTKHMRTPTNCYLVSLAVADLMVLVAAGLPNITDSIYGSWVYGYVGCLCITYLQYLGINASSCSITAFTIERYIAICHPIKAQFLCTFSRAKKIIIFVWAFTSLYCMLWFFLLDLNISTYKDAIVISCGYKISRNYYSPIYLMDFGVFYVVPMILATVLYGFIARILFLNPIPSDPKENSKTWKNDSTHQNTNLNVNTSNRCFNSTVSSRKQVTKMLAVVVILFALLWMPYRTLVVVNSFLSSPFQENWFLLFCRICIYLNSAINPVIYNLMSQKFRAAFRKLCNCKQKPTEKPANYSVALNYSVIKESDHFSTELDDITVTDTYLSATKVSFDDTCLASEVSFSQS
smiles,measurement,setting,value
COc1cccc(OC)c1NC(=O)c1ccc(Cc2cc3c(cc2C)C(C)(C)CCC3(C)C)o1 [Compound 20],Ki,[1],> 10000 nM
same,Ki,[2],> 1000 nM
same,Ki,[3],> 1000 nM
same,Ki,[4],~1000 nM
same,IC50,[5],1700 nM
same,Ki,[6],> 1000 nM
same,Ki,[7],> 1000 nM
same,Ki,[8],> 1000 nM
same,Ki,[9],> 1000 nM
same,Ki,[10],> 1000 nM
same,Ki,[11],3000 to 5000 nM
same,Ki,[12],> 1000 nM
COc1cc(OC)c(NC(=O)c2ccc(Cc3cc4c(cc3C)C(C)(C)CCC4(C)C)o2)c(OC)c1 [Compound 134],% Testosterone suppression,[13]; 20 mg/kg ip,36%
same,Range of Plasma Conc.,[13]; 20 mg/kg ip,0.2 µM
same,Suppression Duration,[13]; 20 mg/kg ip,4 h
same,time of % Testosterone suppression,[13]; 20 mg/kg ip,4 h
same,Range of Plasma Conc.,"[13]; 20 mg/kg po, @ 1 hr",1.1 @ 1 hr μM
same,Range of Plasma Conc.,"[13]; 20 mg/kg po, @ 2 hr",0.15 @ 2 hr μM
same,Range of Plasma Conc.,"[13]; 20 mg/kg po, @ 4 hr",0.17 @ 4 hr μM
same,% Testosterone suppression,[13]; 50 mg/kg po,75%
same,Suppression Duration,[13]; 50 mg/kg po,8 h
same,time of % Testosterone suppression,[13]; 50 mg/kg po,4 h
same,% Testosterone suppression,"[13]; 100 mg/kg im*, 7 days",80%
same,Suppression Duration,"[13]; 100 mg/kg im*, 7 days",12 h
same,time of % Testosterone suppression,"[13]; 100 mg/kg im*, 7 days",12 h
same,% Testosterone suppression,[13]; 100 mg/kg po,80%
same,Suppression Duration,[13]; 100 mg/kg po,12 h
same,time of % Testosterone suppression,[13]; 100 mg/kg po,6 h
same,% Testosterone suppression,[13]; 100 mg/kg sc,60%
same,Range of Plasma Conc.,[13]; 100 mg/kg sc,0.13 µM
same,Suppression Duration,[13]; 100 mg/kg sc,24 h
same,time of % Testosterone suppression,[13]; 100 mg/kg sc,24 h
same,testosterone levels,"[13]; 7 days of repeated treatment, 100 mg/kg im daily, p<0.05",significantly suppressed testosterone levels
same,testosterone levels,"[13]; oral gavage, highest dose, 12 hour time course and 24 hour time point",suppressed testosterone throughout the course of the study
Cc1cc2c(cc1Cc1ccc(C(=O)NCc3cccc(CNc4ccnc(NC[C@@H]5CCCO5)n4)c3)o1)C(C)(C)CCC2(C)C [Compound 136],% Testosterone suppression,[13]; 20 mg/kg ip,72%
same,Range of Plasma Conc.,[13]; 20 mg/kg ip,0.4 µM
same,Suppression Duration,[13]; 20 mg/kg ip,6 h
same,time of % Testosterone suppression,[13]; 20 mg/kg ip,6 h
same,% Testosterone suppression,[13]; 40 mg/kg po,46%
same,Range of Plasma Conc.,[13]; 40 mg/kg po,0.34 µM
same,Suppression Duration,[13]; 40 mg/kg po,4 h
same,time of % Testosterone suppression,[13]; 40 mg/kg po,4 h
same,testosterone levels,"[13]; 6 hours post ip injection, vs vehicle, p<0.05",suppressed testosterone levels
